Key:
[1] = target: Cathepsin S (Homo sapiens, UniProt P25774); assay: Inhibition of human recombinant cathepsin S expressed in baculovirus by FRET assay
[2] = Clearance in Sprague-Dawley rat at 2 mg/kg, iv; type: ADME, organism-based; design: dose 2 mg/kg, route intravenous; conditions: in vivo
[3] = test system: Rattus norvegicus; assay: AUC in Sprague-Dawley rat at 10 mg/kg, po; type: ADME, organism-based, Plasma; design: dose 10 mg/kg, route oral; conditions: in vivo
[4] = Cmax in Sprague-Dawley rat at 10 mg/kg, po; type: ADME, organism-based; design: dose 10 mg/kg, route oral; conditions: in vivo
[5] = Bioavailability in Sprague-Dawley rat at 2 mg/kg, iv; type: ADME, organism-based; conditions: in vivo
[6] = target: Cathepsin B (Homo sapiens, UniProt P07858); assay: Inhibition of human cathepsin B
[7] = Half life in Sprague-Dawley rat at 2 mg/kg, iv; type: ADME, organism-based; design: dose 2 mg/kg, route intravenous; conditions: in vivo
[8] = target: T1, Cathepsin F (Homo sapiens, UniProt Q9UBX1); assay: Inhibition of human cathepsin F
T1 sequence (Q9UBX1 whole entry): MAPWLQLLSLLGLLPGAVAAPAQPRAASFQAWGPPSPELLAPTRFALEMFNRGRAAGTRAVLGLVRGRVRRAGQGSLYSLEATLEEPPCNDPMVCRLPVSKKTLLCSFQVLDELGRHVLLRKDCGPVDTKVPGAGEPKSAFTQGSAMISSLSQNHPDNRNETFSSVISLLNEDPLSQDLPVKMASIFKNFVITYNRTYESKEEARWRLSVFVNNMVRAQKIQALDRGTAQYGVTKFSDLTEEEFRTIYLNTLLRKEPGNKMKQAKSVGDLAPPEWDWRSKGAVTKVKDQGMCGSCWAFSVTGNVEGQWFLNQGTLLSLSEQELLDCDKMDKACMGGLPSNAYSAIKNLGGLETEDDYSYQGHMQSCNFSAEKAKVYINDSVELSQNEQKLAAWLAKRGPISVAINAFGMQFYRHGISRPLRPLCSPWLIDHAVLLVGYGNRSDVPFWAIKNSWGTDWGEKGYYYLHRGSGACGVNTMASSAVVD

[9] = target: Procathepsin L (Homo sapiens, UniProt P07711); assay: Inhibition of human cathepsin L
Sequence of Procathepsin L (P07711 whole entry): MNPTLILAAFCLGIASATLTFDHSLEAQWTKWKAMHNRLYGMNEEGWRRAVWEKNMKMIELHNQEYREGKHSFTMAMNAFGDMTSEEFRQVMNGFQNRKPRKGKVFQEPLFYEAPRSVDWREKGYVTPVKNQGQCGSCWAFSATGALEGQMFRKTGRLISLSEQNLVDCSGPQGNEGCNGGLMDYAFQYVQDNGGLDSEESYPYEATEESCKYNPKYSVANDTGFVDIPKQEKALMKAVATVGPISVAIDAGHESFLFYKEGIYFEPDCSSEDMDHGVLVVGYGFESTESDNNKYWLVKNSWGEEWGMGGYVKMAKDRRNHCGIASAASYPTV

[10] = target: Cathepsin S (Mus musculus, UniProt O70370); assay: Inhibition of mouse cathepsin S expressed in baculovirus by FRET assay
Sequence of Cathepsin S (Mus musculus, UniProt O70370) (O70370 whole entry): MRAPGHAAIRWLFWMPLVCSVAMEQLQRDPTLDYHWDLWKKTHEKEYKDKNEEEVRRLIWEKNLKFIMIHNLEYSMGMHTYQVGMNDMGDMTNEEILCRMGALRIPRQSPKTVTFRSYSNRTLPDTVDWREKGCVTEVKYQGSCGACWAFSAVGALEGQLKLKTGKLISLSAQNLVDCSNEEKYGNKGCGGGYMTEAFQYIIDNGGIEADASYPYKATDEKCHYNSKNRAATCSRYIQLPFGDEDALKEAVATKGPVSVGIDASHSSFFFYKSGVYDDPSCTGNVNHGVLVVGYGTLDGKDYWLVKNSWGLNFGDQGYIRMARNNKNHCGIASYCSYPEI

Sequence of Cathepsin S (Homo sapiens, UniProt P25774) (P25774 whole entry): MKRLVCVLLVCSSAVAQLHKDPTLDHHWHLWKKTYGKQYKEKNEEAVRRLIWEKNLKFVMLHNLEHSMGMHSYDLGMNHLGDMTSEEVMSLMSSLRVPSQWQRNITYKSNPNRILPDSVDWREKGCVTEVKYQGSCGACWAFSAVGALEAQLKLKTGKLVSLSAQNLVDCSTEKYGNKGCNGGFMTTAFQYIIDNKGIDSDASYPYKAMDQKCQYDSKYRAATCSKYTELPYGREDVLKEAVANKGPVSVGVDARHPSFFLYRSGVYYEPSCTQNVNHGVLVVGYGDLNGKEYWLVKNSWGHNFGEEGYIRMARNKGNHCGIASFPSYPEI

Row | IC50 [1] [nM] | SMILES | also measured
1 | 430 | CS(=O)(=O)N1CCc2c(c(-c3ccc(Cl)c(C#Cc4ccc(N)cc4)c3)nn2CCCN2CCOCC2)C1 | –
2 | 1500 | CS(=O)(=O)N1CCc2c(c(-c3ccc(Cl)c(C#Cc4cccc(C(F)(F)F)c4)c3)nn2CCCN2CCOCC2)C1 | –
3 | 1500 | CS(=O)(=O)N1CCc2c(c(-c3ccc(Cl)c(C#Cc4ccsc4)c3)nn2CCCN2CCOCC2)C1 | –
4 | 510 | CS(=O)(=O)N1CCc2c(c(-c3ccc(Cl)c(C#Cc4ccc(C(=O)O)cc4)c3)nn2CCCN2CCOCC2)C1 | –
5 | 550 | COc1ccccc1C#Cc1cc(-c2nn(CCCN3CCOCC3)c3c2CN(S(C)(=O)=O)CC3)ccc1Cl | –
6 | – | CS(=O)(=O)N1CCc2c(c(-c3ccc(Cl)c(C#Cc4ccc(Cl)cc4)c3)nn2CCCN2CCOCC2)C1 | clearance [2]: 3 mL/min; AUC [3]: 48 uM.hr/L; Cmax [4]: 530 nM; bioavailability [5]: 21%; IC50 [6]: > 20000 nM; half-life [7]: 2 h; IC50 [8]: > 20000 nM; IC50 [9]: > 20000 nM; IC50 [10]: 690 nM
7 | 280 | CS(=O)(=O)N1CCc2c(c(-c3ccc(Cl)c(C#Cc4ccc(C(F)(F)F)cc4)c3)nn2CCCN2CCOCC2)C1 | –
8 | 40 | COC(=O)N1CCc2c(c(-c3ccc(Cl)c(C#Cc4ccc(Cl)cc4)c3)nn2CCCN2CCOCC2)C1 | –
9 | 11000 | CCCCC#Cc1cc(-c2nn(CCCN3CCOCC3)c3c2CN(S(C)(=O)=O)CC3)ccc1Cl | –
10 | 480 | COc1ccc(C#Cc2cc(-c3nn(CCCN4CCOCC4)c4c3CN(S(C)(=O)=O)CC4)ccc2Cl)cc1 | –
11 | 330 | O=C(c1ccco1)N1CCc2c(c(-c3ccc(Cl)c(C#Cc4ccc(Cl)cc4)c3)nn2CCCN2CCOCC2)C1 | –
12 | 7400 | CC#Cc1cc(-c2nn(CCCN3CCOCC3)c3c2CN(S(C)(=O)=O)CC3)ccc1Cl | –
13 | 1100 | Cc1ccccc1C#Cc1cc(-c2nn(CCCN3CCOCC3)c3c2CN(S(C)(=O)=O)CC3)ccc1Cl | –

From ChEMBL document CHEMBL1154163, “Pyrazole-based cathepsin S inhibitors with arylalkynes as P1 binding elements” (Bioorg Med Chem Lett, 2009)
